Paper PMC7736581, “Activation of the IRE1 RNase through remodeling of the kinase front pocket by ATP-competitive ligands” (Nature Communications, 2020)

Tests used:
Test in all cases: biochemical
Set-up in all cases: Invitrogen kinase panel: Z'Lyte activity (ATP at Km) or LanthaScreen competitive ATP-site binding, percent inhibition
IRAK4 = target: T1, IRAK4 (Homo sapiens, UniProt Q9NWZ3)
T1 sequence (Q9NWZ3 1-460): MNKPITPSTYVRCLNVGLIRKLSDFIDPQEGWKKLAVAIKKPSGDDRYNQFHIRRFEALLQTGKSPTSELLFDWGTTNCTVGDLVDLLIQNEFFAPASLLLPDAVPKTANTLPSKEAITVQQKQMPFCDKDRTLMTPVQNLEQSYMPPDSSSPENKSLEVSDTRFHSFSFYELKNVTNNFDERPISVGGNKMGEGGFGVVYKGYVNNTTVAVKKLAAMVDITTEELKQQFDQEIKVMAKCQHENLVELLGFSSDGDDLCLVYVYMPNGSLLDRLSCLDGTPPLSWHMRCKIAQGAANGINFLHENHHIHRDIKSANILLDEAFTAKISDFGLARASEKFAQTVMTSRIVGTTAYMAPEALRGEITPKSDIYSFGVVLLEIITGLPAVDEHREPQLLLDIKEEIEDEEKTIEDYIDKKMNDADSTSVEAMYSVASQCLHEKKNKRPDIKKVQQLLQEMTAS

JAK1 = JAK1 (Homo sapiens, UniProt P23458)
JAK1, sequence (P23458 whole entry): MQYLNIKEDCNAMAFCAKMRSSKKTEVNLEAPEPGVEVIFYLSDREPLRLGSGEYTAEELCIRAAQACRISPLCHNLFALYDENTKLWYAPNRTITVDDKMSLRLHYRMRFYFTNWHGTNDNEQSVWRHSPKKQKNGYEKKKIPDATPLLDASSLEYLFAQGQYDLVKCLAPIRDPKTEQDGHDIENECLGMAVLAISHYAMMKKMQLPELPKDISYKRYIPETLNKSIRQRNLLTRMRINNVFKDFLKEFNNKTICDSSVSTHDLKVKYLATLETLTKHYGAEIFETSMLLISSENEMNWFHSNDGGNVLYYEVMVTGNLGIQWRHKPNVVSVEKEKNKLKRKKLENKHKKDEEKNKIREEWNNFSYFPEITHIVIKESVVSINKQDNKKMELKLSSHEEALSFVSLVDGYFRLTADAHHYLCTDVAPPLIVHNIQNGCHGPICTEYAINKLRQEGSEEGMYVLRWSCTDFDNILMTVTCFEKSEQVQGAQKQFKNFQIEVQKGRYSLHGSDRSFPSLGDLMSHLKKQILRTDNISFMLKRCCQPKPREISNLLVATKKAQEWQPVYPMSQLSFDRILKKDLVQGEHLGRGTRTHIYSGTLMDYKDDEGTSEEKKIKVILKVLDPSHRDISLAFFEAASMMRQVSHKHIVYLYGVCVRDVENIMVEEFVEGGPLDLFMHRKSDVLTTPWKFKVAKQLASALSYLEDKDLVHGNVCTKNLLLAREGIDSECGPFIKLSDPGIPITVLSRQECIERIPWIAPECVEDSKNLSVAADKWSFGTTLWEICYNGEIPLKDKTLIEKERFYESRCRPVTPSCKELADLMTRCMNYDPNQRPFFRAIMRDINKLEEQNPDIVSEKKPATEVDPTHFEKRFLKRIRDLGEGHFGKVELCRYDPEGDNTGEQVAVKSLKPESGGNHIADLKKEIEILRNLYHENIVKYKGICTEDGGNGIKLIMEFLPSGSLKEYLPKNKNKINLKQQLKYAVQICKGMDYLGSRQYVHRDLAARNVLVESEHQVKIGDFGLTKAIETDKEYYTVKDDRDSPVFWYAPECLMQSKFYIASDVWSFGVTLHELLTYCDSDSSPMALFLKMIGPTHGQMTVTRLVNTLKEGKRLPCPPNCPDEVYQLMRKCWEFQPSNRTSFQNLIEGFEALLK

TYK2 = TYK2 (Homo sapiens, UniProt P29597)
TYK2, sequence (P29597 whole entry): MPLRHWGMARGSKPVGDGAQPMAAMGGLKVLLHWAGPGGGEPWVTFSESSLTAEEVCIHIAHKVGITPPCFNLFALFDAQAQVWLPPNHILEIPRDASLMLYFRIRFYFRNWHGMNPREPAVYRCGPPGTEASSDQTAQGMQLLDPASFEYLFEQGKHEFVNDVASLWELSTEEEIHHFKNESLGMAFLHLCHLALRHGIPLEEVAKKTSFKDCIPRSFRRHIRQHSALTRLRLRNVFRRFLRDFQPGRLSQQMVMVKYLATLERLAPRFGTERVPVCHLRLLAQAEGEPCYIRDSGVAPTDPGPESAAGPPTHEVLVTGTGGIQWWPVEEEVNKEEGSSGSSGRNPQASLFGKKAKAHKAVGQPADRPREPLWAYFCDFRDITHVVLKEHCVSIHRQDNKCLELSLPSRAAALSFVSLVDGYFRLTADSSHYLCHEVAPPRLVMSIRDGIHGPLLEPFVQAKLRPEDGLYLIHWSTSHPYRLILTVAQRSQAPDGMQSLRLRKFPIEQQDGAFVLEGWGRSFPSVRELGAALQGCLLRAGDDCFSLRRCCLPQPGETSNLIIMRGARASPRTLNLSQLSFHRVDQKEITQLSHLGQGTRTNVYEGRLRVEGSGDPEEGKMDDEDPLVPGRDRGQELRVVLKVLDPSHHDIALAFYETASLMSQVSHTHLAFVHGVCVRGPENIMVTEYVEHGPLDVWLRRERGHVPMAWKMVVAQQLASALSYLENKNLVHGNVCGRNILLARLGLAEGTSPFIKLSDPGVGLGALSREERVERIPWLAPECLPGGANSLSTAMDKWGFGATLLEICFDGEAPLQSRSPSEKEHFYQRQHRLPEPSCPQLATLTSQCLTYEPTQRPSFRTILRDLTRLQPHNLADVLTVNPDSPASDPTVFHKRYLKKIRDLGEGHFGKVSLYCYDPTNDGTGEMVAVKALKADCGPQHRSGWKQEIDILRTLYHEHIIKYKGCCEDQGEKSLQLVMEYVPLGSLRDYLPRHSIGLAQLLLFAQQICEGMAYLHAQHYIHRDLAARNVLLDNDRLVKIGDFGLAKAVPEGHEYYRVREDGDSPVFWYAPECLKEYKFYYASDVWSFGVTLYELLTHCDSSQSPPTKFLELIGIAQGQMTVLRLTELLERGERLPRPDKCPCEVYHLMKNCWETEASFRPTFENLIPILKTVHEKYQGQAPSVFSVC

PKA = target: T2, PKA (Homo sapiens, UniProt P17612)
T2 construct: gene PRKACA

TAK1-TAB1 = target: T3, TAK1-TAB1 (Homo sapiens, UniProt O43318)
T3 construct: gene MAP3K7
T3 sequence (O43318 1-606): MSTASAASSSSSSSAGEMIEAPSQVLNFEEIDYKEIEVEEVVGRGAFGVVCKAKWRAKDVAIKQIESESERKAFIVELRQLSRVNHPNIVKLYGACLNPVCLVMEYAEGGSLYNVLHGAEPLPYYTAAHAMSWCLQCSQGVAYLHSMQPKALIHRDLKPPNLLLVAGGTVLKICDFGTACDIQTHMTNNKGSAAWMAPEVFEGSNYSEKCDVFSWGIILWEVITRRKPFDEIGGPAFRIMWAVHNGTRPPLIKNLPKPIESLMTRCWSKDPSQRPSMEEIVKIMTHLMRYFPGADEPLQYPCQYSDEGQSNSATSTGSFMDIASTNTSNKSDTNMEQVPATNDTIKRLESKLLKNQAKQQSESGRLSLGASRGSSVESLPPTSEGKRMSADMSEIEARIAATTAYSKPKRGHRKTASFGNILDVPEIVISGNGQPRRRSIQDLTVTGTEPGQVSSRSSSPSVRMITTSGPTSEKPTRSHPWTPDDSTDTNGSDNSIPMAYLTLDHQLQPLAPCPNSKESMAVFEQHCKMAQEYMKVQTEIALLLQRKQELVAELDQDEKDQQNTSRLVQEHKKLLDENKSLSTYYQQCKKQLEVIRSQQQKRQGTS
T3 sequence (Q15750 1-504 partner): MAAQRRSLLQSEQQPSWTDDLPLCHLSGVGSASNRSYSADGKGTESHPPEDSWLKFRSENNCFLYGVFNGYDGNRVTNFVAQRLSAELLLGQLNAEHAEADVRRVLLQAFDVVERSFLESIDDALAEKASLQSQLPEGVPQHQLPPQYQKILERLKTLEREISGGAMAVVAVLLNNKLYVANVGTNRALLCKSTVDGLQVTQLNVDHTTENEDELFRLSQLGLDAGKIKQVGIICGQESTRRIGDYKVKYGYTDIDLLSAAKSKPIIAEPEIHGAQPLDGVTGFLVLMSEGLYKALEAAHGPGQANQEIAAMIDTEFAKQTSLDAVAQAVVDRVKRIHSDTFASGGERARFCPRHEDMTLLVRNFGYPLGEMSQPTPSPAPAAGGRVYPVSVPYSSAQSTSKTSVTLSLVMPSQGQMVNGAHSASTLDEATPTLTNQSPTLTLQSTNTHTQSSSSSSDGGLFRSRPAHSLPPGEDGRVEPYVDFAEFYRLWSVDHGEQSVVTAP

ITK = target: T4, ITK (Homo sapiens, UniProt Q08881)
T4 sequence (Q08881 1-620): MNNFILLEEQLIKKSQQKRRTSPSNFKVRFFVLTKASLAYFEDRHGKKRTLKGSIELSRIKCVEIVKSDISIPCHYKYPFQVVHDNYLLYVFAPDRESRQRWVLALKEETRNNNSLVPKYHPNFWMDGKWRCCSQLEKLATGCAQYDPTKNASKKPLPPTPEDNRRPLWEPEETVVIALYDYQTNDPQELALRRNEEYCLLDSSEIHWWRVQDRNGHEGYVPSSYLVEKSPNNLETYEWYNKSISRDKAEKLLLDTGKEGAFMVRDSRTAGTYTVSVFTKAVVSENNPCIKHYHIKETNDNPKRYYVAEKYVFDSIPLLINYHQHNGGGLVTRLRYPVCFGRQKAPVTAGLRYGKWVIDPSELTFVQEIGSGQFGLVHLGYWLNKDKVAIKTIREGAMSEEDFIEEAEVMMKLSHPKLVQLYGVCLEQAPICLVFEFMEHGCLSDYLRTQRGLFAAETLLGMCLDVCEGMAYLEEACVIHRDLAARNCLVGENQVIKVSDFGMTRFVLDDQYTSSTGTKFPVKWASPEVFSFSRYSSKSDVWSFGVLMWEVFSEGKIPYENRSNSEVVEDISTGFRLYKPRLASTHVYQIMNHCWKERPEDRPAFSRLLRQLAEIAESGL

GSK3_beta = target: T5, GSK3_beta (Homo sapiens, UniProt P49841)
T5 construct: gene GSK3B
T5 sequence (P49841 whole entry): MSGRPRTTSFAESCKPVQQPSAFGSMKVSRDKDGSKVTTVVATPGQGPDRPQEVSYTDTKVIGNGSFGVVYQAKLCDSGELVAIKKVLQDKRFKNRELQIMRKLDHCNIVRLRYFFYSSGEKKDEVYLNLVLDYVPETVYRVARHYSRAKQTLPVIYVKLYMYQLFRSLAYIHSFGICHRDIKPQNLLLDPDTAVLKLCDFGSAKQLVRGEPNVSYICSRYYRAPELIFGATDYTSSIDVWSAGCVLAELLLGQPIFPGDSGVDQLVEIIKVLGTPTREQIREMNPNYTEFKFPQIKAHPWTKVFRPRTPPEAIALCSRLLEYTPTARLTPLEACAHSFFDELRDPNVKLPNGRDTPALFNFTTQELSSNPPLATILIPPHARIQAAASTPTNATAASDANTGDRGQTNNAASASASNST

Lck = Lck (Homo sapiens, UniProt P06239)
Lck, sequence (P06239 whole entry): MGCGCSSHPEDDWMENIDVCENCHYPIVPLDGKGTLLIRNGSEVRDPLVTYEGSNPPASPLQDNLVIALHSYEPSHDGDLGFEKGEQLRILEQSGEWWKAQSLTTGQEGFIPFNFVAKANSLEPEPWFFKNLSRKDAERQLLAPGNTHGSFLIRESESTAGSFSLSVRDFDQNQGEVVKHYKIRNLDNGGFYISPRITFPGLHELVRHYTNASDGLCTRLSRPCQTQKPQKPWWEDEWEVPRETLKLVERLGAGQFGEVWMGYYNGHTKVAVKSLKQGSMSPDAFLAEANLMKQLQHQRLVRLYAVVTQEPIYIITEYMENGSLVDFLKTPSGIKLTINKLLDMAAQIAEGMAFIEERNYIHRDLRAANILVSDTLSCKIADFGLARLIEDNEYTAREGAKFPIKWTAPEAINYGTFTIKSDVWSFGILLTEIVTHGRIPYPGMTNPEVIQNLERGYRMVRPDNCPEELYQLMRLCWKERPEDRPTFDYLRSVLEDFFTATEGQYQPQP

inhibition at 1 µM (IRAK4) [%] | inhibition at 1 µM (JAK1) [%] | inhibition at 1 µM (TYK2) [%] | inhibition at 1 µM (PKA) [%] | inhibition at 1 µM (TAK1-TAB1) [%] | inhibition at 1 µM (ITK) [%] | inhibition at 1 µM (GSK3_beta) [%] | inhibition at 1 µM (Lck) [%] | Compound
-1 | 0.5 | -2 | -8 | -2.5 | 0 | 7.5 | -28.5 | CC#CC(=O)Nc1cccc2c(Oc3ncccc3-c3ccnc(N[C@H]4CCCNC4)n3)c(C)ccc12 [G-7658]
96.3 | 68.7 | 84.5 | 43 | 94.3 | 81.3 | 99.1 | 87.2 | O=c1cc(-c2n[nH]c3ncc(-c4c(F)cccc4F)cc23)nc(N2CCC(O)CC2)[nH]1 [G-9807]

Compound | inhibition at 1 µM (IRAK4) [%] | inhibition at 1 µM (JAK1) [%] | inhibition at 1 µM (TYK2) [%] | inhibition at 1 µM (PKA) [%] | inhibition at 1 µM (TAK1-TAB1) [%] | inhibition at 1 µM (ITK) [%] | inhibition at 1 µM (GSK3_beta) [%] | inhibition at 1 µM (Lck) [%]
CCOC(=O)Nc1cccc2c(Oc3ncccc3-c3ccnc(N[C@H]4CCCNC4)n3)c(C)ccc12 [G-1749] | 8 | -4 | -3 | -9 | 23 | 5 | 0.5 | 13.5
